This passage reports IC50 results from article PMC3360746, “CD36 Inhibitors Reduce Postprandial Hypertriglyceridemia and Protect against Diabetic Dyslipidemia and Atherosclerosis” (PLoS ONE, 2012).

This experiment concerns the target T1, CD36 (Homo sapiens, UniProt P16671).
T1 construct: full length human CD36 stably expressed in HEK 293 cells
The experiment can be described thus: inhibition of Cy3-ox-LDL binding to HEK-CD36 cells at […]°C; affinity cross-linking of ox-LDL to CD36. It counts as cell-based.

The structures appear in SMILES notation.

T1 sequence (P16671 2-472): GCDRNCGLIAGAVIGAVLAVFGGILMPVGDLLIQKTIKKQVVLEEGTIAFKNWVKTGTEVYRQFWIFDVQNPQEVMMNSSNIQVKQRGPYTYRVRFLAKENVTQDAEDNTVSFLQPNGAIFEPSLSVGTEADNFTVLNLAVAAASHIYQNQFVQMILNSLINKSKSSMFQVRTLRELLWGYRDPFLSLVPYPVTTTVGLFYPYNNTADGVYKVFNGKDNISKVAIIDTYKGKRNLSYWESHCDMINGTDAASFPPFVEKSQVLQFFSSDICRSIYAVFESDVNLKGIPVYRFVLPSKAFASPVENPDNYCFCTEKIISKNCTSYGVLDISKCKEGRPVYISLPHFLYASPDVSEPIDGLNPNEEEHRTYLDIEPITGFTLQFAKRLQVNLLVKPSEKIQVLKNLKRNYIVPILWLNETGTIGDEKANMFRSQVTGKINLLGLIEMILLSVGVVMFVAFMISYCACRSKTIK

Consider `COc1cc(O)c(/C=N/NC(=O)c2cc3ccccc3s2)c(OC)c1` [AP5055], for which the 50% inhibitory concentration (IC50) was found to be 1000 ± 100 nM. To `COc1cc(O)c(/C=N/NC(=O)c2ccc3nccn3c2)c(OC)c1` [AP5258] belongs 5000 ± 1000 nM.
